Values after ≈ are worked out from the molar mass of the structure shown. Read-outs that look alike come from different tables or passages of the source.
Columns and labels:
[1] = tested on: P. aeruginosa PA 27853 and resistant isolates MR1, MR2, MR3; test: microbe, parasite or virus in culture; format: cell-based, Pseudomonas aeruginosa; details: for MIC: Pseudomonas aeruginosa
Experimental: Minimum inhibitory concentration (MIC)/minimum bactericidal concentration (MBC) were determined in Ca-MHB using a modified macrobroth dilution method as described by the CLSI (10). The final concentration of bacteria in each macrobroth dilution tube was approximately 5×10^5 cfu/ml of Ca-MHB. Serial twofold dilutions of meropenem were used. […] Samples (50 μl) from clear tubes and the cloudy tube with the highest drug concentration were plated on Mueller-Hinton agar (MHA) plates (Hardy Diagnostics, Santa Maria, Calif.). […] Drug carry-over effect was assessed by visual inspection of the distribution of colonies on media plates. The studies were conducted in duplicate and repeated at least once on a separate day.

in vivo = test: in vivo
Experimental: In vivo meropenem concentrations in mouse serum were determined by a microbioassay utilizing Escherichia coli ATCC 25922 as the reference organism. The meropenem standard solutions ranged from 0.5 to 128 μg/ml in mouse serum.
Female Swiss-Webster mice (22-26 g) were used; all mice were cared for in accordance to the highest humane and ethical standards, as approved by the Institutional Animal Care and Use Committee (IACUC). The animals were housed in isolation boxes to decrease the risk of infection from extraneous pathogens. They received food and water ad libitum. The animals were rendered neutropenic by 2 intra-peritoneal injections of cyclophosphamide (Sigma, St. Louis, Mo.) 150 mg/kg on day −4 and 100 mg/kg on day −1 prior to infection; previous studies have shown that this regimen would produce neutropenia for 5 days (13, 16). Transient nephrotoxicity was induced by 1 intra-peritoneal injection of uranyl nitrate (5 mg/kg on day −2), which has been previously shown to produce a significant stable reduction in renal function for at least 7 days (21).
The bacterial inoculum was prepared and inoculated into the animals as outlined below. […] Six mice were sacrificed by CO2 asphyxiation at 0.5, 1, 1.5, 2, and 3 hours after injection. Blood samples were collected via cardiac puncture. The blood was allowed to clot on ice and centrifuged; meropenem concentrations in these serum samples were assayed by a validated method as described below. The serum concentration profiles of all the animals were analyzed by linear regression of the logarithmic-transformed data.

[2] = female, Swiss-Webster, mouse, in vivo, 400 mg/kg

In the case of `C[C@@H](O)[C@H]1C(=O)N2C(C(=O)O)=C(S[C@@H]3CN[C@H](C(=O)N(C)C)C3)[C@H](C)[C@H]12` [meropenem], the MIC ([1]; OprD− isolate used in vivo) is reported as 4 µg/mL (≈ 10.4 µM), the MIC ([1]; strain MR1 (Placebo exposure, OprD−), macrobroth method) is reported as 4 µg/mL (≈ 10.4 µM) and the MIC ([1]; strain MR2 (Cmin/MIC 0.5, OprD− & Mex+), macrobroth method) is reported as 64 µg/mL (≈ 167 µM). For the same compound, the MIC ([1]; strain MR3 (Cmin/MIC 1.7, OprD− & Mex+), macrobroth method, read-out: MIC) was 32 µg/mL (≈ 83.4 µM), the MIC ([1]; strain PA 27853, macrobroth method) was 1 µg/mL (≈ 2.61 µM) and the stability of resistance ([1]; resistant isolates recovered from MEM-supplemented plates) was “phenotypically stable”. The “% T>MIC” value (in vivo; 400 mg/kg, OprD− mutant) was 26%, the “% T>MIC” value (in vivo; 400 mg/kg, wild-type isolate) was 33% and the Cmax (in vivo; [2]) was 354 µg/mL. For the same compound, the half-life (in vivo; [2]) was 19 min and the serum concentration (in vivo; lower doses (50 mg/kg and 100 mg/kg)) was “did not result a detectable serum meropenem concentration beyond 1 hour”.
